In patent publication US20060270862A1, “Analogs of discodermolide and dictyostatin-1, intermediates therefor and methods of synthesis thereof” (priority 2002, published 2006):
Where two headings read alike, the source gives them in different places.

How the values were obtained:
[1] = tested on: paclitaxel binding site on tubulin; experiment: Paclitaxel binding site inhibition assay ([3H]paclitaxel displacement from microtubules); set-up: species or system bovine; conditions: for Displacement of [3H]paclitaxel (%): 4 μM test agent, 2 μM [3H]paclitaxel, microtubules from 2 μM tubulin and 20 μM dideoxyGTP
Description: (§1) General. Tubulin without microtubule-associated proteins was prepared from fresh bovine brains[32] The normoisotopic and tritiated forms of paclitaxel and normoisotopic docetaxel were provided by the Drug Synthesis and Chemistry Branch, National Cancer Institute. (+)-Discodermolide was from Novartis Pharmaceutical Corporation. Ca^2+- and Mg^2+-free RPMI-1640 culture medium were from GIBCO/BRL-Life Technologies. Fetal bovine serum (FBS) was from Hyclone. Cell lines were obtained from American Type Culture Collection (Manassas, Va.).
Paclitaxel binding site inhibition assay. A stock solution of [^3H]paclitaxel (26.8 μM, 16.2 Ci/mmol), obtained from the NCI, was prepared in 37% (v/v) DMSO. The test agents were prepared in 25% (v/v) DMSO-0.75 M monosodium glutamate (prepared from a 2M stock solution adjusted to pH 6.6 with HCl). The radiolabeled paclitaxel and test agents, as indicated in terms of final concentrations, were mixed in equal volumes and warmed to 37° C. A reaction mixture (50 μL) containing 0.75 M monosodium glutamate, 4.0 μM tubulin, and 40 μM ddGTP (a non-hydrolyzable analog of GTP) was prepared and incubated at 37° C. for 30 min to preform microtubules. An equivalent volume of drug mixture with [^3H]paclitaxel was added to preformed polymer and incubated for 30 min at 37° C. Bound [^3H]paclitaxel was separated from free drug by centrifugation of the reaction mixtures at 14000 rpm for 20 min at room temperature. Non-specific binding was determined by addition of a 12-fold excess of docetaxel. Radioactive counts from the supernatant (50 μL) were determined by scintillation spectrometry. Bound [^3H]paclitaxel was calculated from the following: total paclitaxel added to each reaction mixture minus the paclitaxel present in the supernatant (free drug). The % bound values were normalized to the control values with no inhibitor added.

[2] = tested on: tubulin; type: biochemical, bovine; conditions: for properties of the induced polymer: speed of induction, resistance to cold-induced disassembly (in words): FIGS. 6A, 6C, 6D, analogs at somewhat lower potencies than discodermolide; for microtubule hypernucleation activity (in words): comparison with analog 40, FIGS. 6A-D and Table 1; for MT stabilizing activity (%): tubulin assembly induced by test agent at 10 μM vs. 10 μM paclitaxel (100%), single determinations at 30° C.
Description: as §1
Tubulin Polymerization[32] Tubulin assembly was followed in a Beckman-Coulter 7400 spectrophotometer, equipped with an electronic Peltier temperature controller, reading absorbance (turbidity) at 350 nm. Reaction mixtures (0.25 mL final volume) contained tubulin (final concentration 10 μM; 1 mg/mL), monosodium glutamate (0.8 M from a stock solution adjusted to pH 6.6 with HCl), DMSO (final volume 4% v/v), and differing concentrations of test agent where indicated. Reaction mixtures without test agent were cooled to 0° C. and added to cuvettes held at 0.25-0.5° C. in the spectrophotometer. Test agent in DMSO was then rapidly mixed in the reaction mixture. Each run contained one positive control (paclitaxel, 10 μM final concentration) and one negative control (DMSO only). Baselines were established at 0.25-2.5° C. and temperature was rapidly raised to 30° C. (in approximately 1 min) and held there for 20 min.

[3] = ester bond, 2,4,6-trichlorobenzoyl chloride / Et3N / DMAP, toluene, 25.0 °C, 16.0 h
[4] = tested on: 2008 (ovarian); experiment: Cell growth inhibition (MTS), 2008; type: cell-based, human
Description: (§2) Cell Growth Inhibition[34] Cells were plated (500-2000 cells/well depending on the cell line) in 96-well microplates, allowed to attach and grow for 48 h, then treated with vehicle (4% DMSO, a concentration that allowed doubling times of 24 h or less) or test agent (50, 10, 2, 0.4 and 0.08 μM for the new agents; 0.001, 0.005, 0.010, 0.020 and 0.100 μM for paclitaxel and discodermolide) for the given times. One plate consisted of cells from each line used for a time zero cell number determination. The other plates in a given determination contained eight wells of control cells, eight wells of medium and each agent concentration tested in quadruplicate. Cell numbers were obtained spectrophotometrically (absorbance at 490 nm minus that at 630 nm) in a Dynamax plate reader after treatment with 3-(4,5-dimethylthiazol-2-yl)-5-(3-carboxymethoxyphenyl)-2-(4-sulfophenyl)-2H-tetrazolium (MTS) using phenazine methanesulfonate as the electron acceptor. After initial screening with the above 5-fold dilutions, fifty percent growth inhibitory concentration (GI50) values were determined for each agent by repeating the screen using 2-fold dilutions (five concentrations) centered on the initial estimated GI50 concentration, again in quadruplicate.

[5] = tested on: MDA-MB231 (breast); experiment: Cell growth inhibition (MTS), MDA-MB231; type: cell-based, human
Description: as §2

[6] = tested on: PC3 (prostate); experiment: Cell growth inhibition (MTS), PC3; type: cell-based; conditions: Homo sapiens; 72 h continuous exposure; mean ± SD, N = 4; read-out: GI50 PC3 (prostate)
Description: as §2

[7] = Homo sapiens, 48 h, read-out: GI50 2008 (ovary)
[8] = Homo sapiens, MDA-MB-231, 48 h, read-out: GI50 MDA-MB-231 (breast)
[9] = Homo sapiens, MDA-MB-231, read-out: 50% growth inhibitory concentration
[10] = Table 2, applies to both human cancer cell lines, breast (MDA-MB-231) and ovarian (2008), read-out: 50% growth inhibitory concentration

Compound: C=C/C=C\[C@H](C)[C@H](OC(N)=O)[C@@H](C)[C@H](O)CC/C=C\[C@H](C)[C@H](O)[C@@H](C)/C=C\CC[C@@H]1O[C@@H](OC)[C@H](C)[C@@H](OCOC)[C@H]1C [Compound 42, Carbamic acid, (1S,2S,3R,6Z,8S,9S,1S,11Z)-3,9-dihydroxy-14-[(2S,3S,4S,5R,6R)-6-methoxy-4-methoxymethoxy-3,5-dimethyltetrahydropyran-2-yl]-2,8,10-trimethyl-1-[(1S,2Z)-1-methylpenta-2,4-dienyl]tetradeca-6,11-dienyl ester]
- Displacement of [3H]paclitaxel (%) [1]: 19 ± 2%
- properties of the induced polymer: speed of induction, resistance to cold-induced disassembly (in words) [2]: more rapid polymer-inducing and cold-resistant properties
- microtubule hypernucleation activity (in words) [2]: better microtubule hypernucleation activities than the analog 40
- MT stabilizing activity (%) [2]: 11%

Compound: C=C/C=C\[C@H](C)[C@H]1OC(=O)/C=C\C=C\[C@@H](C)[C@H](OCc2ccc(OC)cc2)CC/C=C\[C@H](C)[C@H](OCc2ccc(OC)cc2)[C@@H](C)/C=C\CC[C@@H](OCc2ccc(OC)cc2)[C@H]1C
- ring closure, yield of all isomers ([3]; from C=C/C=C\[C@H](C)[C@@H](O)[C@H](C)[C@@H](CC/C=C\[C@H](C)[C@@H](OCc1ccc(OC)cc1)[C@@H](C)/C=C\CC[C@@H](OCc1ccc(OC)cc1)[C@H](C)/C=C/C=C\C(=O)O)OCc1ccc(OC)cc1, 2 steps): 79%

Compound: C=CC=C[C@H](C)[C@@H](O)[C@H](C)[C@H](O)CCC=C[C@H](C)[C@@H](O)[C@@H](C)C=CCCCCCCCCC(=O)OC [Compound 48, (12S,13S,14S,19R,20R,21R,22S)-13,19,21-Trihydroxy-12,14,20,22-tetramethylhexacosa-10,15,23,25-tetraenoic acid methyl ester]
- Displacement of [3H]paclitaxel (%) ([1]; N = 6, means ± SD): 17 ± 1%
- GI50 [4, 7]: 19 ± 2 µM
- GI50 [5, 8]: 26 ± 3 µM
- IC50 [5, 9]: 15 to 30 µM

Compound: C=CC=CC(C)[C@H]1OC(=O)C=CC=C[C@@H](C)[C@H](O)CCC=C[C@H](C)[C@H](O)[C@@H](C)C=CCC[C@@H](O)[C@H]1C (stereo partly drawn) [Compound 54, (7R,8R,13S,14S,15S,20R,21R,22R,23S)-8,14,20-Trihydroxy-7,13,15,21-tetramethyl-22-(1-methylpenta-2,4-dienyl)-oxacyclodocosa-3,5,11,16-tetraen-2-one]
- Displacement of [3H]paclitaxel (%) ([1]; N = 6, means ± SD): 27 ± 8%
- potency of [3H]paclitaxel displacement relative to discodermolide ([1]; [3H]paclitaxel stoichiometrically bound to microtubules): about ⅓
- GI50 ([4]; 72 hours continuous exposure (footnote b), mean ± SD, N = 4, read-out: GI50 2008 (ovary)): 1 ± 0.1 µM
- GI50 ([5]; 72 hours continuous exposure (footnote b), mean ± SD, N = 4, read-out: GI50 MDA-MB-231 (breast)): 1.4 ± 0.1 µM
- IC50 [5, 10]: ~1 µM

Compound: C=CC=C[C@H](C)[C@@H](O)[C@H](C)[C@H](O)CCC=C[C@H](C)[C@@H](O)[C@@H](C)C=CCCCCCCCCC(=O)O [Compound 49, (12S,13S,14S,19R,20R,21R,22S)-13,19,21-Trihydroxy-12,14,20,22-tetramethylhexacosa-10,15,23,25-tetraenoic acid]
- Displacement of [3H]paclitaxel (%) ([1]; N = 6, means ± SD): 16 ± 3%
- GI50 ([4]; Homo sapiens, 48 hours continuous exposure, mean ± SD, N = 4, read-out: GI50 2008 (ovary)): > 50 µM
- GI50 ([5]; Homo sapiens, MDA-MB-231, 48 hours continuous exposure, mean ± SD, N = 4, read-out: GI50 MDA-MB-231 (breast)): > 50 µM
- IC50 [5, 10]: > 50 µM

Compound: C=C/C=C\[C@H](C)[C@H]1OC(=O)CCCCCCCC/C=C\[C@H](C)[C@H](OCc2ccc(OC)cc2)[C@@H](C)/C=C\CC[C@@H](OCc2ccc(OC)cc2)[C@H]1C
- ring closure, yield of all isomers ([3]; from C=C/C=C\[C@H](C)[C@@H](O)[C@H](C)[C@@H](CC/C=C\[C@H](C)[C@@H](OCc1ccc(OC)cc1)[C@@H](C)/C=C\CCCCCCCCC(=O)O)OCc1ccc(OC)cc1, 1.93 mM): 57%

Compound: C=CC=C[C@H](C)[C@@H](O)[C@H](C)[C@H](O)CCC=C[C@H](C)[C@@H](O)[C@@H](C)C=CCCCCCCCCCO [Compound 47, (12S,13S,14S,19R,20R,21R,22S)-12,14,20,22-Tetramethylhexacosa-10,15,23,25-tetraene-1,13,19,21-tetraol]
- Displacement of [3H]paclitaxel (%) ([1]; N = 6, means ± SD): 21 ± 2%
- GI50 [4, 7]: 22 ± 5 µM
- GI50 [5, 8]: 18 ± 1 µM
- IC50 [5, 9]: 15 to 30 µM

Compound: CC(=O)O[C@H]1C(=O)[C@@]2(C)[C@H]([C@H](OC(=O)c3ccccc3)[C@]3(O)C[C@H](OC(=O)[C@H](O)[C@@H](NC(=O)c4ccccc4)c4ccccc4)C(C)=C1C3(C)C)[C@]1(OC(C)=O)CO[C@@H]1C[C@@H]2O [paclitaxel, reference compound]
- Displacement of [3H]paclitaxel (%) [1]: 37 ± 1%
- GI50 ([4]; Homo sapiens, 72 h continuous exposure, mean ± SD, N = 4, read-out: GI50 2008 (ovarian)): 0.0092 ± 0.0016 µM
- GI50 ([5]; Homo sapiens, MDA-MB-231, 72 h continuous exposure, mean ± SD, N = 4, read-out: GI50 MDA-MB231 (breast)): 0.0024 ± 0.0016 µM
- MT stabilizing activity (%) [2]: 100%
- GI50 [6]: 0.015 ± 0.002 µM

Compound: C=C/C=C\[C@H](C)[C@@H]1OC(=O)/C=C\C=C\[C@@H](C)[C@@H](O[Si](C)(C)C(C)(C)C)C[C@H](O[Si](C)(C)C(C)(C)C)/C=C\[C@H](C)[C@H](O)[C@@H](C)C[C@@H](C)CCC(O[Si](C)(C)C(C)(C)C)[C@@H]1C (stereo partly shown)
- ring closure, yield of all isomers ([3]; from C=C/C=C\[C@H](C)[C@H](O)[C@@H](C)C(CC[C@H](C)C[C@H](C)[C@@H](O)[C@@H](C)/C=C\[C@H](C[C@H](O[Si](C)(C)C(C)(C)C)[C@H](C)/C=C/C=C\C(=O)O)O[Si](C)(C)C(C)(C)C)O[Si](C)(C)C(C)(C)C, 1.77 mM, 2 steps): 49%

Compound: C=CC=C[C@H](C)[C@H]1OC(=O)CCCCCCCCC=C[C@H](C)[C@H](O)[C@@H](C)C=CCC[C@@H](O)[C@H]1C [Compound 43, (1S,13S,14S,15S,20R,21R,22R)-14,20-Dihydroxy-13,15,21-trimethyl-22-(1-methylpenta-2,4-dienyl)-oxacyclodocosa-11,16-dien-2-one]
- Displacement of [3H]paclitaxel (%) ([1]; N = 6, means ± SD): 18 ± 5%
- GI50 [4, 7]: 16 ± 1 µM
- GI50 [5, 8]: 27 ± 1 µM
- IC50 [5, 9]: 15 to 30 µM

Compound: C=C/C=C\[C@H](C)[C@H](OC(N)=O)[C@@H](C)[C@H](O)CC/C=C\[C@H](C)[C@H](O)[C@@H](C)/C=C\CC[C@@H]1OC(=O)[C@H](C)[C@@H](OCOC)[C@H]1C [Compound 41]
- affinity for the paclitaxel binding site on tubulin (in words) [1]: considerable affinity
- Displacement of [3H]paclitaxel (%) [1]: 57 ± 2%
- displacement of [3H]paclitaxel from microtubules, comparison (in words) ([1]; 2-fold molar excess of test agent): better than paclitaxel and at almost the same potency as discodermolide
- 50% growth inhibitory (GI50) concentration (in words) ([5]; cellular activity, cell line not given): submicromolar
- properties of the induced polymer: speed of induction, resistance to cold-induced disassembly (in words) [2]: more rapid polymer-inducing and cold-resistant properties
- microtubule hypernucleation activity (in words) [2]: better microtubule hypernucleation activities than the analog 40
- MT stabilizing activity (%) [2]: 27%
